{
  "source": "patent US20260053811A1",
  "about": "“METHODS OF TREATING HYPERTENSION IN OBESE SUBJECTS” (Mineralys Therapeutics, Inc., priority 2022, published 2026)",
  "system": "hypertensive subjects",
  "test": "Seated automated office blood pressure (AOBP) in randomized, placebo-controlled, dose-ranging study",
  "type": "in vivo, human",
  "set-up": "Difference from placebo in change in blood pressure: unit not given here",
  "protocol": "A randomized, double-blinded, placebo-controlled, dose-ranging, multicenter study was conducted to evaluate the effect of orally administered Compound A HBr on blood pressure for the treatment of hypertension in male and female subjects ≥18 years of age.\nThe study consists of two parts. For enrollment into Part 1 of the study, a subject's value of plasma renin activity (PRA) must be ≤1 ng/mL/h based on morning measurement. If the value of PRA >1 ng/mL/h based on morning measurement, then subjects may be eligible to enter Part 2 of the study.\nFor Part 1, 163 enrolled subjects ≥18 years of age were randomized into 6 equal treatment groups (1:1:1:1:1:1) to 12.5 mg BID, 25 mg BID, 12.5 mg QD, 50 mg QD, 100 mg QD, or placebo. After a review of interim clinical data, the 2 lowest dose levels (12.5 mg QD and 12.5 mg BID) were stopped for future randomization due to a lack of consistent meaningful reduction of blood pressure, but the patients randomized to that point remained in the study through completion. Thus, after the review of interim clinical data, subjects were randomized into 4 equal treatment groups (1:1:1:1) to 25 mg BID, 50 mg QD, 100 mg QD, or placebo.\nFor Part 2, 36 enrolled subjects ≥18 years of age were randomized (5:1) to either 100 mg QD Compound A HBr or placebo such that the Compound A HBr treatment group consisted of approximately 30 subjects and the placebo treatment group will consist of approximately 6 subjects.\nSubjects orally administered the assigned study drug (Compound A HBr or placebo) according to the assigned dosing regimen for 8 weeks beginning on Study Day 1. All subjects in Part 1 (regardless of dosing group) received BID dosing to preserve the integrity of the blind; active drug is administered as the morning dose for all QD dose groups. Subjects returned to the research facility or were seen by the clinical investigator or approved home health care professional at the end of Study Weeks 1, 2, 3, 4, 5, 6, 7, and 8 (±2 days) for protocol-defined efficacy and safety assessments and procedures, assessment of adverse events (AEs), and confirmation of compliance with study drug usage. Subjects also completed a telephone visit and blood pressure (BP) check at home approximately 3 days post last dose of study drug. Subjects attended up to 14 full clinic visits, including a pre-Screening visit, a Screening/start of Placebo Run-in visit, a second visit during Placebo Run-in, a clinic visit to initiate the ABPM procedure, a Randomization visit, 8 weekly visits during double-blind treatment, and an end-of-study visit scheduled 4 weeks after the last study treatment for final efficacy and safety assessments.\nAn automated oscillometric sphygmomanometer device was used to measure the subjects' systolic and diastolic blood pressure in office after approximately 5 minutes of rest in the seated position.\nThe primary endpoint is the change in office-measured (mean of last 2 of 5 unattended measurements using an automated oscillometric sphygmomanometer device after approximately 5 minutes of rest in the seated position) systolic blood pressure (SBP) from baseline to the end of Study Week 8.\nSecondary endpoints of this study were: • (a) Change in 24-hour ambulatory blood pressure monitoring (ABPM) parameters (systolic and diastolic) from baseline to the end of Study Week 7. • (b) Change in office-measured SBP from baseline to the end of Study Weeks 1, 2, 3, 4, 5, 6, and 7. • (c) Change in office-measured diastolic blood pressure (DBP) from baseline to the end of Study Weeks 1, 2, 3, 4, 5, 6, 7, and 8. • (d) Proportion of subjects who achieve office-measured BP of ≤130/80 mm Hg by the end of Study Week 8.",
  "key": {"[1]": {"conditions": "12.5 mg BID, Week 1, Part 1, FAS"}, "[2]": {"conditions": "12.5 mg BID, Week 2, Part 1, FAS"}, "[3]": {"conditions": "12.5 mg BID, Week 3, Part 1, FAS"}, "[4]": {"conditions": "12.5 mg BID, Week 4, Part 1, FAS"}, "[5]": {"conditions": "12.5 mg BID, Week 5, Part 1, FAS"}, "[6]": {"conditions": "12.5 mg BID, Week 6, Part 1, FAS"}, "[7]": {"conditions": "12.5 mg BID, Week 7, Part 1, FAS"}, "[8]": {"conditions": "12.5 mg BID, Week 8, Part 1, FAS"}},
  "data": [
    {"molecule": "CC(=O)N[C@H]1CC[C@H](NC(=O)CN2CCN(c3nncc(-c4ccc(C)cc4)n3)CC2)CC1", "note": "[Compound A HBr]", "values": [
      {"measurement": "Difference from placebo in change in blood pressure", "setting": "12.5 mg BID, BMI 25-30", "result": "−3.5"},
      {"measurement": "Difference from placebo in change in blood pressure", "setting": "12.5 mg BID, BMI >30", "result": "−10.1"},
      {"measurement": "Difference from placebo in change in blood pressure", "setting": "12.5 mg BID, Thiazide No", "result": "−1.4"},
      {"measurement": "Difference from placebo in change in blood pressure", "setting": "12.5 mg BID, Thiazide Yes", "result": "−10.6"},
      {"measurement": "Seated AOBP DBP change from baseline (CFB), Mean (SD)", "setting": "[1]", "result": "−5.95 (6.17) mmHg"},
      {"measurement": "Seated AOBP DBP, Mean (SD)", "setting": "[1]", "result": "75.59 (8.32) mmHg"},
      {"measurement": "Seated AOBP SBP change from baseline (CFB), Mean (SD)", "setting": "[1]", "result": "−8.89 (11.51) mmHg"},
      {"measurement": "Seated AOBP SBP, Mean (SD)", "setting": "[1]", "result": "135.68 (14.48) mmHg"},
      {"measurement": "Seated AOBP DBP change from baseline (CFB), Mean (SD)", "setting": "[2]", "result": "−7.32 (9.14) mmHg"},
      {"measurement": "Seated AOBP DBP, Mean (SD)", "setting": "[2]", "result": "74.23 (10.15) mmHg"},
      {"measurement": "Seated AOBP SBP change from baseline (CFB), Mean (SD)", "setting": "[2]", "result": "−11.98 (13.02) mmHg"},
      {"measurement": "Seated AOBP SBP, Mean (SD)", "setting": "[2]", "result": "132.59 (14.70) mmHg"},
      {"measurement": "Seated AOBP DBP change from baseline (CFB), Mean (SD)", "setting": "[3]", "result": "−0.93 (7.51) mmHg"},
      {"measurement": "Seated AOBP DBP, Mean (SD)", "setting": "[3]", "result": "79.95 (9.17) mmHg"},
      {"measurement": "Seated AOBP SBP change from baseline (CFB), Mean (SD)", "setting": "[3]", "result": "−5.80 (9.60) mmHg"},
      {"measurement": "Seated AOBP SBP, Mean (SD)", "setting": "[3]", "result": "137.70 (15.37) mmHg"},
      {"measurement": "LSM Δ with Placebo, seated AOBP DBP (MMRM)", "setting": "[4]", "result": "−4.48", "unit": "mmHg"},
      {"measurement": "Modelled (MMRM) LSM (SEM) change from baseline, seated AOBP DBP", "setting": "[4]", "result": "−5.02 (1.67) mmHg"},
      {"measurement": "Seated AOBP DBP change from baseline (CFB), Mean (SD)", "setting": "[4]", "result": "−4.18 (10.21) mmHg"},
      {"measurement": "Seated AOBP DBP, Mean (SD)", "setting": "[4]", "result": "75.79 (10.69) mmHg"},
      {"measurement": "Seated AOBP SBP change from baseline (CFB), Mean (SD)", "setting": "[4]", "result": "−10.71 (12.27) mmHg"},
      {"measurement": "Seated AOBP SBP, Mean (SD)", "setting": "[4]", "result": "132.95 (15.79) mmHg"},
      {"measurement": "Seated AOBP DBP change from baseline (CFB), Mean (SD)", "setting": "[5]", "result": "−7.00 (7.81) mmHg"},
      {"measurement": "Seated AOBP DBP, Mean (SD)", "setting": "[5]", "result": "73.50 (10.13) mmHg"},
      {"measurement": "Seated AOBP SBP change from baseline (CFB), Mean (SD)", "setting": "[5]", "result": "−12.53 (13.34) mmHg"},
      {"measurement": "Seated AOBP SBP, Mean (SD)", "setting": "[5]", "result": "131.44 (13.13) mmHg"},
      {"measurement": "Seated AOBP DBP change from baseline (CFB), Mean (SD)", "setting": "[6]", "result": "−6.47 (6.39) mmHg"},
      {"measurement": "Seated AOBP DBP, Mean (SD)", "setting": "[6]", "result": "74.95 (10.29) mmHg"},
      {"measurement": "Seated AOBP SBP change from baseline (CFB), Mean (SD)", "setting": "[6]", "result": "−14.00 (14.80) mmHg"},
      {"measurement": "Seated AOBP SBP, Mean (SD)", "setting": "[6]", "result": "129.79 (15.24) mmHg"},
      {"measurement": "Seated AOBP DBP change from baseline (CFB), Mean (SD)", "setting": "[7]", "result": "−5.76 (7.62) mmHg"},
      {"measurement": "Seated AOBP DBP, Mean (SD)", "setting": "[7]", "result": "74.21 (9.64) mmHg"},
      {"measurement": "Seated AOBP SBP change from baseline (CFB), Mean (SD)", "setting": "[7]", "result": "−11.76 (13.06) mmHg"},
      {"measurement": "Seated AOBP SBP, Mean (SD)", "setting": "[7]", "result": "131.89 (11.93) mmHg"},
      {"measurement": "LSM Δ from Placebo, change from baseline in seated AOBP SBP (MMRM)", "setting": "[8]", "result": "−7.2", "unit": "mmHg"},
      {"measurement": "LSM Δ with Placebo, seated AOBP DBP (MMRM)", "setting": "[8]", "result": "−3.84", "unit": "mmHg"},
      {"measurement": "Modelled (MMRM) LSM (SEM) change from baseline, seated AOBP DBP", "setting": "[8]", "result": "−5.47 (2.02) mmHg"},
      {"measurement": "Modelled (MMRM) LSM (SEM) change from baseline, seated AOBP SBP", "setting": "[8]", "result": "−11.30 (3.15) mmHg"},
      {"measurement": "Seated AOBP DBP change from baseline (CFB), Mean (SD)", "setting": "[8]", "result": "−5.84 (8.78) mmHg"},
      {"measurement": "Seated AOBP DBP, Mean (SD)", "setting": "[8]", "result": "75.21 (10.07) mmHg"},
      {"measurement": "Seated AOBP SBP change from baseline (CFB), Mean (SD)", "setting": "[8]", "result": "−13.79 (17.70) mmHg"},
      {"measurement": "Seated AOBP SBP, Mean (SD)", "setting": "[8]", "result": "131.89 (12.93) mmHg"},
      {"measurement": "Subjects with seated AOBP SBP/DBP ≤130/80 mmHg: No", "setting": "[8]", "result": "15 (68.2) n (%)"},
      {"measurement": "Subjects with seated AOBP SBP/DBP ≤130/80 mmHg: Yes", "setting": "[8]", "result": "7 (31.8) n (%)"},
      {"measurement": "Difference from placebo in change in blood pressure", "setting": "12.5 mg QD, BMI 25-30", "result": "−.14"}
    ]}
  ]
}
